Results taken from ChEMBL document CHEMBL1151427, “Intrinsic novobiocin resistance in Staphylococcus saprophyticus” (2007).
In brackets after ≈: the same amount, converted by molar mass.

Tests used:
Assay type in all cases: functional
[1] = test system: Staphylococcus aureus; assay: Antimicrobial activity against Staphylococcus aureus RN4220 harboring tetracycline-regulable expression vector pAJ96 after 24 hrs by agar dilution method; settings: RN4220, 24 h
[2] = test system: Staphylococcus aureus; assay: Antimicrobial activity against Staphylococcus aureus SH1000 after 24 hrs by agar dilution method; settings: SH1000, 24 h
[3] = Ratio of MIC for Staphylococcus aureus RN4220 harboring tetracycline-regulable expression vector pAJ96 expressing Staphylococcus saprophyticus GyrB gene to MIC for Staphylococcus aureus RN4220
[4] = test system: Staphylococcus aureus; assay: Antimicrobial activity against Staphylococcus aureus RN4220 harboring tetracycline-regulable expression vector pAJ96 expressing Staphylococcus saprophyticus GyrB gene after 24 hrs by agar dilution method; settings: RN4220, 24 h
[5] = test system: Staphylococcus aureus; assay: Antimicrobial activity against Staphylococcus aureus RN4220 harboring tetracycline-regulable expression vector pAJ96 expressing Staphylococcus saprophyticus GyrB G85D, K140R mutant gene after 24 hrs by agar dilution method; settings: RN4220, 24 h
[6] = Ratio of MIC for Staphylococcus aureus RN4220 harboring tetracycline-regulable expression vector pAJ96 expressing Staphylococcus saprophyticus GyrB gene to MIC for Staphylococcus aureus SH1000
[7] = test system: Staphylococcus aureus; assay: Antimicrobial activity against Staphylococcus aureus RN4220 harboring tetracycline-regulable expression vector pAJ96 expressing Staphylococcus saprophyticus GyrB K140R mutant gene after 24 hrs by agar dilution method; settings: RN4220, 24 h
[8] = test system: Staphylococcus saprophyticus; assay: Antimicrobial activity against Staphylococcus saprophyticus ATCC 15305 after 24 hrs by agar dilution method; settings: ATCC 15305, 24 h
[9] = test system: Staphylococcus aureus; assay: Antimicrobial activity against Staphylococcus aureus RN4220 after 24 hrs by agar dilution method; settings: RN4220, 24 h
[10] = test system: Staphylococcus aureus; assay: Antimicrobial activity against Staphylococcus aureus RN4220 harboring tetracycline-regulable expression vector pAJ96 expressing Staphylococcus saprophyticus GyrB G85D mutant gene after 24 hrs by agar dilution method; settings: RN4220, 24 h
[11] = test system: Staphylococcus aureus; assay: Antimicrobial activity against Staphylococcus aureus RN4220 harboring tetracycline-regulable expression vector pAJ96 expressing Staphylococcus aureus GyrB gene after 24 hrs by agar dilution method; settings: RN4220, 24 h

Compound `CO[C@@H]1[C@@H](OC(N)=O)[C@@H](O)[C@H](Oc2ccc3c(O)c(NC(=O)c4ccc(O)c(CC=C(C)C)c4)c(=O)oc3c2C)OC1(C)C` [NOVOBIOCIN] has an MIC [1] of 0.125 µg/mL (≈ 0.204 µM), an MIC [2] of 0.125 µg/mL (≈ 0.204 µM) and a Ratio [3] of 64. For the same compound, the MIC [4] was 8 µg/mL (≈ 13.1 µM), the MIC [5] was 0.125 µg/mL (≈ 0.204 µM) and the Ratio [6] was 64. For the same compound, the MIC [7] was 2 µg/mL (≈ 3.26 µM), the MIC [8] was 16 µg/mL (≈ 26.1 µM) and the MIC [9] was 0.125 µg/mL (≈ 0.204 µM). The MIC [10] was 1 µg/mL (≈ 1.63 µM) and the MIC [11] was 0.125 µg/mL (≈ 0.204 µM).
